Columns and labels:
[1] = test system: THP-1 human acute monocytic leukemia cell harboring NRAS G12D mutation; test: THP-1 cell proliferation assay (counter screen, CellTiter-96); format: cell-based; details: Cytotoxicity, THP-1 cells (counter screen), 72 hours
Description: (§1) Inhibition of cell growth by compounds was measured using CellTiter™-96 assay. The cytotoxicity of compounds was evaluated in CSF-1-dependent M-NFS-60 mouse myeloid leukemia cell, FLT3 signal addicted MV4-11 human acute myeloid leukemia cell with FLT3-ITD mutation, c-KIT signal addicted Kasumi-1 human acute myeloid leukemia cell with c-KIT N822K activating mutation, and THP-1 human acute monocytic leukemia cell harboring NRAS G12D mutation.
THP-1 human acute monocytic leukemia cells harbor NRAS G12D mutation, which renders cell proliferate independently of class III RTKs signal. […] Cells were allowed to expand until reaching saturation at which point they were subcultured or harvested for assay use.
(§2) M-NFS-60, Kasumi-1, MV4-11 and THP-1 cells were seeded into 96-well plates at 2000, 64000, 6500, and 5000 cells/well, respectively, and incubated at 37° C., 5% CO2 overnight. Then, these seeded cells were treated with increasing concentrations of the test compounds and incubated for another 72 hours. At the end of the incubation, CellTiter96® AQueous One Solution Reagent (Promega) was added and incubated for 4 hours. Cell viability was determined by measuring absorbance at 490 nm using EMax® microplate reader (Molecular Devices).

[2] = test system: CSF-1-dependent M-NFS-60 mouse myeloid leukemia cell; test: M-NFS-60 cell proliferation assay (CellTiter-96); format: cell-based; details: Cytotoxicity, M-NFS-60 cells, 72 hours
Description: as §1
The compounds disclosed herein were tested in M-NFS-60 cell proliferation assay to determine their cellular potency against CSF-1R. […] Inhibition of CSF-1R kinase activity will cause reduced growth and/or cell death. […] Cells were allowed to expand until reaching saturation at which point they were subcultured or harvested for assay use.
as §2

[3] = test system: MV4-11 human acute myeloid leukemia cell with FLT3-ITD mutation; test: MV4-11 cell proliferation assay (CellTiter-96); format: cell-based; details: Cytotoxicity, MV4-11 cells, 72 hours
Description: as §1
(§3) The compounds disclosed herein were tested in MV4-11 cell proliferation assay to determine their cellular potency against FLT3 kinase. MV4-11 human acute myeloid leukemia cells harbor ligand-independent FLT3-ITD activating mutation, which render its proliferation FLT3-ITD dependent. Inhibition of FLT3 kinase activity will cause reduced growth and/or cell death. […] Cells were allowed to expand until reaching saturation at which point they were subcultured or harvested for assay use.
as §2

PDGFRβ kinase = PDGFRβ kinase (Homo sapiens (Human), UniProt P09619); test: PDGFRβ kinase assay (radiometric); format: biochemical; details: bound
Description: (§4) Inhibition of PDGFRβ kinase activity by a test compound disclosed herein was estimated by radiometric assay. Standard assay conditions were 10 ng of recombinant PDGFRβ (SignalChem) with 2 μg of substrate Poly-(Glu 4:Tyr 1) (sigma) in the assay buffer in kinase reaction buffer (10 mM MOPS pH 7.0, 0.21 mM EDTA, 0.5% glycerol, 0.001% Brij-35, 0.01 2-mercaptoehtanol, 1 mg/ml BSA, 10 mM MgCl2, 10 mM MnCl2, 10 μM ATP, 0.1 μCi per well [^33P]-ATP), in the presence of test compound (diluted in final concentration of 4% DMSO) or DMSO control, with a final volume of 25 μl for 60 minutes at 30° C. The reaction was stopped by adding 5 μl of 3% phosphoric acid solution. Total reaction solution was then harvested onto a filter plate (UniFilter-96 GF/B, PerkinElmer), and washed 20 times for 5 min with dH2O. 30 μl of MicroScint™-20 Cocktail (PerkinElmer) was added to dried plate. The plate was sealed and counted using a TopCount scintillation detector (PerkinElmer). […] The IC50 values of quinoxaline compounds of this invention against PDGFRβ kinase were determined using the GraphPad Prism 5 software.
(§5) The IC50 values for selected quinoxaline compounds of this invention against CSF-1R, c-KIT, FLT3, and PDGFRβ are summarized in Table 3.

[4] = test system: Kasumi-1 human acute myeloid leukemia cell with c-KIT N822K activating mutation; test: Kasumi-1 cell proliferation assay (CellTiter-96); format: cell-based; details: Cytotoxicity, Kasumi-1 cells, 72 hours
Description: as §1
as §3, with “Kasumi” for “MV4-11”, “c-KIT” for “FLT3”, “N822K c-KIT” for “FLT3-ITD”, “thus the cell” for “which render its”, “relied on c-KIT signal.” for “FLT3-ITD dependent.”
as §2

c-KIT kinase = c-KIT kinase (Homo sapiens (Human), UniProt P10721); test: c-KIT kinase assay (radiometric); format: biochemical
Description: as §4, with “of c-KIT” for “of PDGFRβ”, “were 20” for “were 10”, “recombinant c-Kit” for “recombinant PDGFRβ”, “well [^33P]-ATP,” for “well [^33P]-ATP),”, “against c-KIT” for “against PDGFRβ”
as §5

CSF-1R kinase = CSF-1R kinase (Homo sapiens (Human), UniProt P07333); test: CSF-1R kinase assay (AlphaScreen); format: biochemical
Description: Inhibition of CSF-1R kinase activity by a test compound disclosed herein was estimated by AlphaScreen (PerkinElmer). […] Reactions were incubated at 30° C. for 45 min and stopped by adding 5 μL of 50 mM EDTA. Analysis of resulting product using an AlphaScreen kit, and counted with Enspire Alpha (PerkinElmer). […] The IC50 values of quinoxaline compounds of this invention against CSF-1R kinase were determined using the GraphPad Prism 5 software.

FLT3 kinase = FLT3 kinase (Homo sapiens (Human), UniProt P36888); test: FLT3 kinase assay (radiometric); format: biochemical; details: bound
Description: Inhibition of FLT3 kinase activity by a test compound disclosed herein was estimated by radiometric assay. Standard assay conditions were 5 ng of recombinant FLT3 (Thermo Fisher) with 2 μg of substrate Poly-(Glu 4:Tyr 1) (sigma) in the assay buffer in kinase reaction buffer (10 mM MOPS pH 7.0, 0.21 mM EDTA, 0.5% glycerol, 0.001% Brij-35, 0.01 2-mercaptoehtanol, 1 mg/ml BSA, MgCl2 10 mM, 10 μM ATP, 0.1 μCi per well [^33P]-ATP, in the presence of test compound (diluted in final concentration of 4% DMSO) or DMSO control, with a final volume of 25 μl for 60 minutes at 30° C. The reaction was stopped by adding 5 μl of 3% phosphoric acid solution. Total reaction solution was then harvested onto a filter plate (UniFilter-96 GF/B, PerkinElmer), and washed 20 times for 5 min with dH2O. 30 μl of MicroScint™-20 Cocktail (PerkinElmer) was added to dried plate. The plate was sealed and counted using a TopCount scintillation detector (PerkinElmer). […] The IC50 values of quinoxaline compounds of this invention against FLT3 kinase were determined using the GraphPad Prism 5 software.
as §5

Sequence of CSF-1R kinase (P07333 20-972): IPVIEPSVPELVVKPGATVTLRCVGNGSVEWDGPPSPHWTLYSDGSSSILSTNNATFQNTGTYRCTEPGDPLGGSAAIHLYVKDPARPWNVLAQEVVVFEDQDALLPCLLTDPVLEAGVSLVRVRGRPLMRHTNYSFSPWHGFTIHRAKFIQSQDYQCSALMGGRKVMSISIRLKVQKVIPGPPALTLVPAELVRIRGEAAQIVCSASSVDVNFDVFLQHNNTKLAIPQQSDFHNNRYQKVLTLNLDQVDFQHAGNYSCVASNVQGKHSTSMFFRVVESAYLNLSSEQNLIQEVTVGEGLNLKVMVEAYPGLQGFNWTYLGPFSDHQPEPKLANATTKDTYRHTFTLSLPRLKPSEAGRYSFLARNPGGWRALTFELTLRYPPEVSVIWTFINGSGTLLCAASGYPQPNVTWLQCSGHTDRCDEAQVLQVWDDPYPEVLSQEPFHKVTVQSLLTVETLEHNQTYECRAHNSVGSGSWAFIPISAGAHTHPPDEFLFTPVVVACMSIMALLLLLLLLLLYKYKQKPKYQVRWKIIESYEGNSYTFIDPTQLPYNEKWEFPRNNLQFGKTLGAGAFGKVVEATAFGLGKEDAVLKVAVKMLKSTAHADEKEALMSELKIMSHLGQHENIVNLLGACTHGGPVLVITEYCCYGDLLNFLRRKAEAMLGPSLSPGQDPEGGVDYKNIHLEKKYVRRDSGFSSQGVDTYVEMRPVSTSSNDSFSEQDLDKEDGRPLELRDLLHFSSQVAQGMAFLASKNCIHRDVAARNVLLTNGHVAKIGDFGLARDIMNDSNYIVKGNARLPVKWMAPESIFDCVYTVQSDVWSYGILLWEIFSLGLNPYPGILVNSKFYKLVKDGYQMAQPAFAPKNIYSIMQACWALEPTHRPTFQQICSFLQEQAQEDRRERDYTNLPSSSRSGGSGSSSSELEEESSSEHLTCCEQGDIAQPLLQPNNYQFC
Sequence of FLT3 kinase (P36888 27-993): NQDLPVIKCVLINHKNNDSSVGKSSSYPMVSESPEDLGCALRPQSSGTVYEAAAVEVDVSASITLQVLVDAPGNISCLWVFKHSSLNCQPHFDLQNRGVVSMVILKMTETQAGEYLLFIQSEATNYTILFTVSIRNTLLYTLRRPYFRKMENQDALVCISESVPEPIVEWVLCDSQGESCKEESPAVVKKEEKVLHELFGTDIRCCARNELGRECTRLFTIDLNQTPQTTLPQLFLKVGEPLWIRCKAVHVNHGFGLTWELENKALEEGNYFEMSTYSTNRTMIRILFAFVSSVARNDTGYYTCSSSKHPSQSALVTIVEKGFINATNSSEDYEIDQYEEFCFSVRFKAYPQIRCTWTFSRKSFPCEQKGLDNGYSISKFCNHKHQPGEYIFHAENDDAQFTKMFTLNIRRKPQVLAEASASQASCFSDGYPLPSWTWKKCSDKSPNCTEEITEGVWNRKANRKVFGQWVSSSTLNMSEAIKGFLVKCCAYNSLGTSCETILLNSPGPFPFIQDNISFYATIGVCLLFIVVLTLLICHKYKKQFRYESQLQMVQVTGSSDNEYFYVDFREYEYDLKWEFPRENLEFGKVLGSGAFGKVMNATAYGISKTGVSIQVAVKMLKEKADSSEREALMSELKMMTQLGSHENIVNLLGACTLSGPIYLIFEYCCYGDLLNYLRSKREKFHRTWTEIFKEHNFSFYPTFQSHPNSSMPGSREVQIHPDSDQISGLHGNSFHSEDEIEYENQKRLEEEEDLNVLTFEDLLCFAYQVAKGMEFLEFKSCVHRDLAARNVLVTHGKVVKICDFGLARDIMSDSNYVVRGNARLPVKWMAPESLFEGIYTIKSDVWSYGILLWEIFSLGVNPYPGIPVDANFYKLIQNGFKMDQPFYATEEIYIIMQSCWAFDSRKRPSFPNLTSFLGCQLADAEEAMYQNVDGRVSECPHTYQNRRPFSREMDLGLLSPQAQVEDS
Sequence of c-KIT kinase (P10721 26-976): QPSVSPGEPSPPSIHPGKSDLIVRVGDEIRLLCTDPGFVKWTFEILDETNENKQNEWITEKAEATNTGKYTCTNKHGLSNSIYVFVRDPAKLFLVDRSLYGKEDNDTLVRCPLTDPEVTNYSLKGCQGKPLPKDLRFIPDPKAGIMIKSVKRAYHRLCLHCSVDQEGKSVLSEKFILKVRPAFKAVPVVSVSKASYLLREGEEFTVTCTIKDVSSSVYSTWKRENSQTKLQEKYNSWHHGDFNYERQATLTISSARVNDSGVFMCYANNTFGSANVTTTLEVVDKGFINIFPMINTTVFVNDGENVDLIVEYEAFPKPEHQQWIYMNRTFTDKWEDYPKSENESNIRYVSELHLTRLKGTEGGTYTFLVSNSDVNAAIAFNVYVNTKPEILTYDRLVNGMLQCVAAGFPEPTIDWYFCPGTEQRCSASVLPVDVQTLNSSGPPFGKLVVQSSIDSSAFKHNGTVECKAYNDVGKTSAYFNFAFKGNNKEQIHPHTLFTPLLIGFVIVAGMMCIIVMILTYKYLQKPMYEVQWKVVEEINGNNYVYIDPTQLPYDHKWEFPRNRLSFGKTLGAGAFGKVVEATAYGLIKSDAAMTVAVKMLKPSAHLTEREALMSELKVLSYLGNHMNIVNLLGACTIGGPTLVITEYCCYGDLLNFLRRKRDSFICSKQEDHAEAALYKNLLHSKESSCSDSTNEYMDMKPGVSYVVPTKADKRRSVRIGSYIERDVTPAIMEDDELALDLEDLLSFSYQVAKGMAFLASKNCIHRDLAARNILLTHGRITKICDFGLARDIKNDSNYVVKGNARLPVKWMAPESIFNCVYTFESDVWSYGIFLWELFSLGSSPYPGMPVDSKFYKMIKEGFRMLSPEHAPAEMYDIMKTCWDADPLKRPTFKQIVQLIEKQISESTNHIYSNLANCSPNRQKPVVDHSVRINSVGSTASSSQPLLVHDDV
Sequence of PDGFRβ kinase (P09619 33-1106): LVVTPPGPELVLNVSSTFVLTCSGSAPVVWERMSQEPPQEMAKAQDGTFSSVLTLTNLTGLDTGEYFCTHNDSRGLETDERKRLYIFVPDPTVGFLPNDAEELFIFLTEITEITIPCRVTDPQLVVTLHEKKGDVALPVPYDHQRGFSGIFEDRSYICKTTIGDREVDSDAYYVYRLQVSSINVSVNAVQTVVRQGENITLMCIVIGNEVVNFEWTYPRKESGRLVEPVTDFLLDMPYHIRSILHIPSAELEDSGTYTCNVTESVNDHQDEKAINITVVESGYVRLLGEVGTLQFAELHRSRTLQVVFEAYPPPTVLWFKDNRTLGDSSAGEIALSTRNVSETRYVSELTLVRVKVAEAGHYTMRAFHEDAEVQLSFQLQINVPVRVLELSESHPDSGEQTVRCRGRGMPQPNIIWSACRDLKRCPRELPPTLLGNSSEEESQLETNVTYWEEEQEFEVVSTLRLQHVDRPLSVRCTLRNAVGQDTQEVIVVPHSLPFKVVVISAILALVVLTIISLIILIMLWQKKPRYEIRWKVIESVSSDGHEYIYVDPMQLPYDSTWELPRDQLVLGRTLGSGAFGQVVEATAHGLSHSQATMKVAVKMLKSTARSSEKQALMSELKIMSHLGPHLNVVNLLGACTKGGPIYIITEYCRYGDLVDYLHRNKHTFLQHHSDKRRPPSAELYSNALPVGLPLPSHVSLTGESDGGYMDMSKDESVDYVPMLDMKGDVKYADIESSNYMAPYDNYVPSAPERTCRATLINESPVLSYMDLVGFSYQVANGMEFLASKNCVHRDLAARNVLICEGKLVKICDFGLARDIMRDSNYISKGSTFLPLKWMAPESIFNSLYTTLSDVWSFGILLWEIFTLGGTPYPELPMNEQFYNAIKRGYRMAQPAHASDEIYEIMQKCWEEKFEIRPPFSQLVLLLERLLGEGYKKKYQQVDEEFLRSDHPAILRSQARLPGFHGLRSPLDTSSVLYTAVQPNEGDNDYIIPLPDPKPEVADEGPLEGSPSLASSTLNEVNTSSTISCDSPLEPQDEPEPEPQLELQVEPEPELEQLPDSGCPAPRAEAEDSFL

Structure (SMILES) | IC50 [1] | IC50 [2] | IC50 [3] | IC50 (PDGFRβ kinase) | IC50 [4] | IC50 (c-KIT kinase; class symbol) | IC50 (CSF-1R kinase; class symbol) | IC50 (FLT3 kinase) | IC50 (c-KIT kinase; bound) | IC50 (CSF-1R kinase; bound)
COc1cc(Nc2ccc3ncc(N4CCOCC4)nc3c2C#N)ccc1OCc1ccc(N(C)C)nc1 [Example 104, 6-((4-((6-(dimethylamino)pyridin-3-yl)methoxy)-3-methoxyphenyl)amino)-3-morpholinoquinoxaline-5-carbonitrile] | > 10 µM | 1 to 10 µM | 1 to 10 µM | > 1000 nM | 1000 to 10000 nM | < 100 nM | < 100 nM | > 1000 nM |  | 
C#CCOc1ccc(Nc2ccc3ncc(N4CCOCC4)nc3c2C#N)cc1OC [Example 92, 6-((3-methoxy-4-(prop-2-yn-1-yloxy)phenyl)amino)-3-morpholinoquinoxaline-5-carbonitrile] | > 10 µM | 1 to 10 µM | 1 to 10 µM | > 1000 nM | 300 to 1000 nM | 100 to 300 nM | 300 to 1000 nM | > 1000 nM |  | 
COc1ccc(COc2ccc(Nc3ccc4ncc(OC)nc4c3)cc2OC)cc1 [Example 5, 3-methoxy-N-(3-methoxy-4-((4-methoxybenzyl)oxy)phenyl)quinoxalin-6-amine] | > 10 µM | 1 to 10 µM | 1 to 10 µM | > 1000 nM | 1000 to 10000 nM |  | 100 to 300 nM | > 1000 nM | > 1000 nM | 
COc1cnc2ccc(Nc3ccc(NCc4ccc(C(F)(F)F)cc4)nc3)c(C#N)c2n1 [Example 4, 3-methoxy-6-((6-((4-(trifluoromethyl)benzyl)amino)pyridin-3-yl)amino)quinoxaline-5-carbonitrile] | > 10 µM | > 10 µM | 1 to 10 µM | > 1000 nM | 1000 to 10000 nM | 300 to 1000 nM |  | > 1000 nM |  | > 1000 nM
COc1cc(Nc2ccc3ncc(N4CCOCC4)nc3c2C#N)ccc1OCc1nccn1C [Example 48, 6-((3-methoxy-4-((1-methyl-1H-imidazol-2-yl)methoxy)phenyl)amino)-3-morpholinoquinoxaline-5-carbonitrile] | > 10 µM | > 10 µM | > 10 µM | > 1000 nM | 1000 to 10000 nM | 300 to 1000 nM |  | > 1000 nM |  | > 1000 nM
COc1ccc(COc2ccc(Nc3ccc4ncc(N5CCOCC5)nc4c3C#N)cc2Cl)cc1 [Example 63, 6-((3-chloro-4-((4-methoxybenzyl)oxy)phenyl)amino)-3-morpholinoquinoxaline-5-carbonitrile] | > 10 µM | 1 to 10 µM | > 10 µM | > 1000 nM | > 10000 nM |  | < 100 nM | > 1000 nM | > 1000 nM | 
COc1cc(Nc2ccc3ncc(N4CCOCC4)nc3c2C#N)ccc1OCc1cc(C)on1 [Example 61, 6-((3-methoxy-4-((5-methylisoxazol-3-yl)methoxy)phenyl)amino)-3-morpholinoquinoxaline-5-carbonitrile] | > 10 µM | > 10 µM | > 10 µM | > 1000 nM | 300 to 1000 nM | < 100 nM | < 100 nM | > 1000 nM |  | 
COc1cc(Nc2ccc3ncc(N4CCOCC4)nc3c2C#N)ccc1OCC1CCCO1 (stereo not shown) [Example 123, 6-((3-methoxy-4-((tetrahydrofuran-2-yl)methoxy)phenyl)amino)-3-morpholinoquinoxaline-5-carbonitrile] | > 10 µM | > 10 µM | 1 to 10 µM | > 1000 nM | 1000 to 10000 nM | 300 to 1000 nM |  | > 1000 nM |  | > 1000 nM
COc1cc(Nc2ccc3ncc(N4CCOCC4)nc3c2C#N)ccc1OCc1cnccn1 [Example 51, 6-((3-methoxy-4-(pyrazin-2-ylmethoxy)phenyl)amino)-3-morpholinoquinoxaline-5-carbonitrile] | > 10 µM | > 10 µM | > 10 µM | > 1000 nM | 300 to 1000 nM | < 100 nM |  | > 1000 nM |  | > 1000 nM
CCOc1ccc(COc2ccc(Nc3ccc4ncc(OC)nc4c3C#N)cc2OC)cc1 [Example 20, 6-((4-((4-ethoxybenzyl)oxy)-3-methoxyphenyl)amino)-3-methoxyquinoxaline-5-carbonitrile] | > 10 µM | > 10 µM | > 10 µM | > 1000 nM | 1000 to 10000 nM | < 100 nM | 300 to 1000 nM | > 1000 nM |  | 
COc1cc(Nc2ccc3ncc(N4CCOCC4)nc3c2C#N)ccc1OCC1CC1 [Example 36, 6-((4-(cyclopropylmethoxy)-3-methoxyphenyl)amino)-3-morpholinoquinoxaline-5-carbonitrile] | > 10 µM | > 10 µM | 1 to 10 µM | > 1000 nM | 300 to 1000 nM | 100 to 300 nM | 300 to 1000 nM | > 1000 nM |  | 

— US10689362B2, “Quinoxaline compounds as type III receptor tyrosine kinase inhibitors” (Development Center for Biotechnology, priority 2016, dated 2020)
